Measurements as given in publication PMC4448987, “A neuroligin-1-derived peptide stimulates phosphorylation of the NMDA receptor NR1 subunit and rescues MK-801-induced decrease in long-term potentiation and memory impairment” (Pharmacology Research & Perspectives, 2015).
Structures can show the parent of a compound that is named as a salt.

B1: NL1: rat recombinant NL1 ectodomain obtained from R&D Systems (protein, UniProt Q62765 46-697, looked up)
extracellular domain: QKLDDVDPLVTTNFGKIRGIKKELNNEILGPVIQFLGVPYAAPPTGEHRFQPPEPPSPWSDIRNATQFAPVCPQNIIDGRLPEVMLPVWFTNNLDVVSSYVQDQSEDCLYLNIYVPTEDVKRISKECARKPGKKICRKGDIRDSGGPKPVMVYIHGGSYMEGTGNLYDGSVLASYGNVIVITVNYRLGVLGFLSTGDQAAKGNYGLLDLIQALRWTSENIGFFGGDPLRITVFGSGAGGSCVNLLTLSHYSEGNRWSNSTKGLFQRAIAQSGTALSSWAVSFQPAKYARILATKVGCNVSDTVELVECLQKKPYKELVDQDVQPARYHIAFGPVIDGDVIPDDPQILMEQGEFLNYDIMLGVNQGEGLKFVENIVDSDDGVSASDFDFAVSNFVDNLYGYPEGKDVLRETIKFMYTDWADRHNPETRRKTLLALFTDHQWVAPAVATADLHSNFGSPTYFYAFYHHCQTDQVPAWADAAHGDEVPYVLGIPMIGPTELFPCNFSKNDVMLSAVVMTYWTNFAKTGDPNQPVPQDTKFIHTKPNRFEEVAWTRYSQKDQLYLHIGLKPRVKEHYRANKVNLWLELVPHLHNLNDISQYTSTTTKVPSTDITLRPTRKNSTPVTSAFPTAKQDDPKQQPSPFSVDQRDYSTELS
modifications: extracellular domain
notes: rat recombinant NL1 ectodomain obtained from R&D Systems

Legend:
male Wistar rats [1] = test: Y maze test (spontaneous alternation); type: in vivo, rat; conditions: n = 6-12
Procedure: NMDA-mediated effects of Neurolide-1 on spatial working memory performance was assessed by recording spontaneous alternation behavior in a Y maze test performed as described previously (Wegener et al. [2011]), (See Data S1). Initially, adult male Wister rats (420–490 g, n = 6–12; Charles River) were injected s.c., three times at 28, 4, and 2 h before start of the Y maze test. One group received Neurolide-1, saline, and neurolide-1 in this order. Another group received saline, MK-801, and saline in this order. A third group received neurolide-1, MK-801, and neurolide-1 in this order. And control group received saline at all times. In a second setup we tested the effect of neurolide-1 in very young male Wistar rats (4-weeks old) which received a s.c., injection of neurolide-1 or saline 2 h prior to testing them in the Y-maze (n = 11–15). Terminally, rats were rapidly and humanely rendered unconscious by concussive stunning and euthanized by cervical dislocation.
The maze was made of gray polyvinyl chloride, with three identical arms (425 mm length × 225 mm height × 145 mm width) mounted symmetrically to an equilateral triangular center section. Each rat was placed at the end of one arm and allowed to explore the apparatus freely for 8 min. The sequence and number of all arm entries were recorded for each animal throughout the testing period. An alternation was defined as entries into all three arms on consecutive occasions. Therefore, the number of maximal alternation was the total number of arm entries minus 2, and the percentage of alternation was calculated as (actual alternations / maximal alternations) × 100. The total number of arms entered during the sessions was also determined (Yamaguchi et al, 2006). Data were eliminated in cases in which the number of total arm entries was less than 10 or when the rat escaped from the Y maze. After each trial, the Y maze was cleaned with 1% Virkon S (Pharmaxim, Helsingborg, Sweden).

[2] = MK-801 0.1 mg/kg, cited from earlier work
male Wistar rats [3] = test: Spatial memory in the Morris water maze; type: in vivo; conditions: rat, n = 12
Procedure: The Morris water-maze test (Morris [1984]) was performed as previously described (Kraev et al. [2011]) with slight modifications (see Data S1). Male Wistar rats (Charles River), weighing 150–200 g on the day of arrival were used. To investigate for potential effects on memory consolidation, neurolide-1 was injected immediately after the training sessions on day 1 and 2 (n = 12 in each group). To test for potential effects on memory acquisition neurolide-1 was injected 2 h before start of training on training day 1 and 2 (n = 12 in each group). Finally, to test for potential effects on MK-801-induced learning deficiencies neurolide-1 was injected 2 h before start of training on day 2 and 3 in animals, which had received an injection with MK-801 30 min earlier (n = 6–9 in each group). In a slightly modified version of the MK-801 experiments a group of animals received a neurolide-1 injection immediately after the training sessions on day 1, and then a neurolide-1 injection 2 h before start of training on day 2, preceded by an MK-801 injection 30 min earlier (n = 12 in each group). Terminally, rats were rapidly and humanely rendered unconscious by concussive stunning and euthanized by cervical dislocation.
The Morris water maze test (Morris, 1984) was conducted in a 160 cm wide circular black tank placed in a dimly lit room and filled with 21°C water up to 20 cm from the top. The tank was surrounded by visual orientation marks, and a 10 cm wide escape platform was placed 1.5 cm below the water level for it to be unseen. A video camera was placed above the tank and connected to a computerized tracking system (Ethovision 3.1, Noldus IT, Wageningen, Holland). The tank was divided into four equal-size quadrants that also served as starting positions. The latency to locate the platform, time spent swimming, and swimming speed were scored within the defined zones (i.e., total area, quadrants, and a platform circle that was 60 cm in diameter with the center in the original platform location). Prior to training, the rats were handled 2 min daily for 5 days to minimize stress during the experiments.
Reference memory training consisted of three consecutive trials daily for 3 days. Each trial began with placing the animal in the water facing the wall of the pool. The starting position differed for each trial but was identical for all animals. In each trial, the animal was allowed 90 s to locate the platform. […] After each trial, the rats were allowed 20 s of orientation time on the platform and then removed from the pool for 20 s before the next trial was initiated. After the last trial each day, the animals were dried and returned to their home cages.
To test for effects on long-term memory, the animals were tested in a probe trial 24 h after the last reference memory training. In the probe trial, the platform was removed, and the animals began from a position in a quadrant adjacent to the original platform quadrant. The rats were allowed to swim for 60 s, after which the trial was stopped.

[4] = test system: hippocampal slices, CA3-CA1 synapse (fEPSP slope); test: LTP in acute hippocampal slices from mice injected s.c.; type: in vivo, C57BL/6N mice; conditions: mice injected with MK-801 0.1 mg/kg s.c. alone, 1 h before sacrifice; slope 25-30 min after HFS vs before; mean ± SEM, n = 6
Procedure: Juvenile C57BL/6N mice of both sexes (postnatal day 16–24; Taconic, Ejby, Denmark) were injected subcutaneously (s.c.) with 10 mg/kg of the neurolide-1 peptide solution (10 mg/mL) and again 23 h later with 10 mg/kg of the neurolide-1 peptide solution (10 mg/mL) and 0.1 mg/kg MK-801 solution (0.025 mg/mL). Mice receiving the injection with the MK-801 solution only or untreated mice served as control groups. The young mice were rapidly and humanely euthanized with a minimum of distress by decapitation at a time point corresponding to 24 h after first injection. Preceding anesthetic was omitted to preserve the tissue free of drug residues and brain slice functions as unaltered as possible when performing the physiological measurements. After decapitation, the brain was removed. […]
Measurements were made in oxygenated aCSF at room temperature (1.1 mL/min). […] The field potential in the stratum radiatum of the CA1 area of the hippocampus was recorded with an extracellular glass microelectrode (4–6 MΩ, filled with aCSF), positioned at least 500 μm away from the stimulation electrode. […]

[5] = test system: NMDA receptor NR1 subunit (serine 897); test: NMDA receptor phosphorylation assay (immunoblot, anti-phospho-Ser897-NR1) in cultured cortical neurons; type: cell-based, Wistar rat; conditions: cultured rat cortical neurons, 5 min stimulation, NL1 ectodomain up to 5.4 nmol/L, four independent experiments
Procedure: Cortical neurons were obtained from Wistar rat embryos at embryonic day 19, of both sexes, basically as previously described (Maar et al. [1997]) (see Data S1). Briefly, animals were rendered unconscious by concussive stunning and euthanized by cervical dislocation. Hereafter, the embryonic brains were collected and cortical neurons were dissociated and seeded in 60-mm tissue culture dishes coated with 1 μg/mL of poly-D-lysine (Sigma-Aldrich, St. Louis, MO) and grown for 8 days before treatment. Then, the cultures were stimulated with either the NL1 ectodomain (0.2, 0.6, 1.8, and 5.4 nmol/L) or neurolide-1 (0.1, 0.3, 1, and 2.7 μmol/L) for 5 min. The cells were lysed, and proteins were resolved by sodium dodecyl sulfate-polyacrylamide gel electrophoresis followed by immunoblotting using rabbit anti-Ser897-NR1 antibody (1:500; Millipore, Billerica, MA), mouse anti-β-tubulin antibody (1:50,000; Sigma-Aldrich), and IRDye secondary antibodies (Odyssey, Lincoln, NE). The bands were visualized using the Odyssey CLX Infrared Imaging System (Odyssey). Four independent experiments with stimulation by NL1 ectodomain and eight independent experiments with stimulation by neurolide-1 were performed.

Molecule | alternation rate (male Wistar rats [1]; adult rats 420-490 g, MK-801 0.1 mg/kg s.c. 4 h before test) [%] | total number of arm entries, single treatment (male Wistar rats [1]; adult rats, peptide alone or MK-801 alone) | time after injection at which the increase in stereotypy peaked ([2]; returned to baseline 2 h later, ref Homayoun et al. [2004], Su et al. [2007]) [min] | motility ([2]; ref Verma and Moghaddam [1996], Homayoun et al. [2004]) | learning (escape latency) in the water maze (male Wistar rats [3]; MK-801 0.1 mg/kg s.c. on day 2, 2.5 h before first training session) | velocity in the water maze (male Wistar rats [3]; MK-801 0.1 mg/kg s.c. with or without neurolide-1 10 mg/kg s.c. (long-term regimen)) | increase of fEPSP slope after high-frequency stimulation (LTP) [4] [%] | effect on NR1 phosphorylation at higher concentrations [5]
C[C@]12N[C@H](Cc3ccccc31)c1ccccc12 [MK-801, (5S,10R)-(+)-5-methyl-10,11-dihydro-5H-dibenzo[a,d]cyclohepten-5,10-imine maleate] | ~50 | did not change | 40 | induce hypermotility | strongly inhibited learning | Neither treatments affected velocity | 27 ± 5 | –
B1 | – | – | – | – | – | – | – | did not have a statistically significant effect
